biological target: recombinant HCV NS5B (HCV RNA-dependent RNA polymerase) (Hepatitis C virus genotype 1b, UniProt P26663); experiment: biochemical; conditions: HCV polymerase activity, list of compounds of Example 27; read-out: IC50 (polymerase activity)
Sequence (P26663 2420-3010 limits assumed): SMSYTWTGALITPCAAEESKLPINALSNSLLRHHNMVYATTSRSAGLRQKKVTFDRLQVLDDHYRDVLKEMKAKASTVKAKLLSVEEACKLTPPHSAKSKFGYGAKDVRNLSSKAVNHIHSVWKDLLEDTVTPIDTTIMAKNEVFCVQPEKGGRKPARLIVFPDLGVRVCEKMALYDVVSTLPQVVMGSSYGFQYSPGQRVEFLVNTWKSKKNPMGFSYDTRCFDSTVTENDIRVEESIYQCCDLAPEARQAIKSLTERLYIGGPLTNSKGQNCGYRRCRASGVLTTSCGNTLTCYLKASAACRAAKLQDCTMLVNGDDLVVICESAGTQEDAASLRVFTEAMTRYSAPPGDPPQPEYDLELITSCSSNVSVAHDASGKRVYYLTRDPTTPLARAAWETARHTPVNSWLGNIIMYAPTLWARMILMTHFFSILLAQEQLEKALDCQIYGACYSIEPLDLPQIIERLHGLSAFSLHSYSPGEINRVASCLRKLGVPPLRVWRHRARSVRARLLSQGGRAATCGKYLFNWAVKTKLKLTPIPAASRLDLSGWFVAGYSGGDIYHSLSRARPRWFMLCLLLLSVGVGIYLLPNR

Compared with CC1CCC(C(=O)N(c2cc(-c3ccccc3)sc2C(=O)O)C(C)C)C1 (stereo not shown) [Compound 408, 3-[ISOPROPYL-(3-METHYL- CYCLOPENTANECARBONYL)-AMINO]-5- PHENYL-THIOPHENE-2-CARBOXYLIC ACID], CC1CCC(C(=O)N(c2cc(-c3ccccc3)sc2C(=O)O)C(C)C)C(O)C1 (stereo not shown) [Compound 409, 3-[(2-HYDROXY-4-METHYL- CYCLOHEXANECARBONYL)-ISOPROPYL- AMINO]-5-PHENYL-THIOPHENE-2- CARBOXYLIC ACID] is lower in IC50: 5 to 20 µM for the first, less than 5 µM for the second. The second is the more potent here.

CCC(=O)N(Cc1ccc(C(F)(F)F)cc1)c1cc(-c2ccccc2)sc1C(=O)O [Compound 410, 5-PHENYL-3-[PROPIONYL-(4- TRIFLUOROMETHYL-BENZYL)-AMINO]- THIOPHENE-2-CARBOXYLIC ACID] and CCCC(=O)N(Cc1ccc(C(F)(F)F)cc1)c1cc(-c2ccccc2)sc1C(=O)O [Compound 415, 3-[BUTYRYL-(4-TRIFLUOROMETHYL- BENZYL)-AMINO]-5-PHENYL-THIOPHENE- 2-CARBOXYLIC ACID] fall in the same range of IC50: 5 to 20 µM for the first, 5 to 20 µM for the second.

CC(C)C(=O)N(Cc1ccc(C(F)(F)F)cc1)c1cc(-c2ccccc2)sc1C(=O)O [Compound 411, 3-[ISOBUTYRYL-(4-TRIFLUOROMETHYL- BENZYL)-AMINO]-5-PHENYL-THIOPHENE- 2-CARBOXYLIC ACID] and CC(C)CC(=O)N(Cc1ccc(C(F)(F)F)cc1)c1cc(-c2ccccc2)sc1C(=O)O [Compound 412, 3-[(3-METHYL-BUTYRYL)-(4- TRIFLUOROMETHYL-BENZYL)-AMINO]-5- PHENYL-THIOPHENE-2-CARBOXYLIC ACID] fall in the same range of IC50: 5 to 20 µM for the first, 5 to 20 µM for the second.

O=C(O)c1sc(-c2ccccc2)cc1N(Cc1ccc(C(F)(F)F)cc1)C(=O)C1CC1 [Compound 413, 3-[CYCLOPROPANECARBONYL-(4- TRIFLUOROMETHYL-BENZYL)-AMINO]-5- PHENYL-THIOPHENE-2-CARBOXYLIC ACID] and O=C(O)c1sc(-c2ccccc2)cc1N(Cc1ccc(C(F)(F)F)cc1)C(=O)C1CCC1 [Compound 414, 3-[CYCLOBUTANECARBONYL-(4- TRIFLUOROMETHYL-BENZYL)-AMINO]-5- PHENYL-THIOPHENE-2-CARBOXYLIC ACID] fall in the same range of IC50: 5 to 20 µM for the first, 5 to 20 µM for the second.

First: O=C(O)c1sc(-c2ccccc2)cc1N(Cc1ccc(C(F)(F)F)cc1)C(=O)CC1CCCC1 [Compound 416, 3-[(2-CYCLOPENTYL-ACETYL)-(4- TRIFLUOROMETHYL-BENZYL)-AMINO]-5- PHENYL-THIOPHENE-2-CARBOXYLIC ACID]
Second: Cc1ccc(CN(C(=O)C2CCC2)c2cc(-c3ccccc3)sc2C(=O)O)cc1 [Compound 435, 3-[CYCLOBUTANECARBONYL-(4- METHYL-BENZYL)-AMINO]-5-PHENYL- THIOPHENE-2-CARBOXYLIC ACID]
The IC50 of the first is higher: 5 to 20 µM for the first, less than 5 µM for the second.

CCC(=O)N(Cc1ccc(C(C)(C)C)cc1)c1cc(-c2ccccc2)sc1C(=O)O [Compound 417, 3-[(4-TERT-BUTYL-BENZYL)-PROPIONYL- AMINO]-5-PHENYL-THIOPHENE-2- CARBOXYLIC ACID] and CCC(=O)N(Cc1ccc([N+](=O)[O-])cc1)c1cc(-c2ccccc2)sc1C(=O)O [Compound 418, 3-[(4-NITRO-BENZYL)-PROPIONYL- AMINO]-5-PHENYL-THIOPHENE-2- CARBOXYLIC ACID] fall in the same range of IC50: 5 to 20 µM for the first, 5 to 20 µM for the second.

First: CC(C)CC(=O)N(Cc1ccc([N+](=O)[O-])cc1)c1cc(-c2ccccc2)sc1C(=O)O [Compound 419, 3-[(3-METHYL-BUTYRYL)-(4-NITRO- BENZYL)-AMINO]-5-PHENYL-THIOPHENE- 2-CARBOXYLIC ACID]
Second: O=C(O)c1sc(-c2ccccc2)cc1N(Cc1ccc([N+](=O)[O-])cc1)C(=O)C1CC1 [Compound 420, 3-[CYCLOPROPANECARBONYL-(4- NITRO-BENZYL)-AMINO]-5-PHENYL- THIOPHENE-2-CARBOXYLIC ACID]
The IC50 of the first is lower: less than 5 µM for the first, 5 to 20 µM for the second. The first is the more potent here.

CC(C)C(=O)N(Cc1ccccc1Cl)c1cc(-c2ccccc2)sc1C(=O)O [Compound 421, 3-[(2-CHLORO-BENZYL)-ISOBUTYRYL- AMINO]-5-PHENYL-THIOPHENE-2- CARBOXYLIC ACID] and CC(C)CC(=O)N(Cc1ccccc1Cl)c1cc(-c2ccccc2)sc1C(=O)O [Compound 422, 3-[(2-CHLORO-BENZYL)-(3-METHYL- BUTYRYL)-AMINO]-5-PHENYL- THIOPHENE-2-CARBOXYLIC ACID] fall in the same range of IC50: 5 to 20 µM for the first, 5 to 20 µM for the second.

Compared with O=C(O)c1sc(-c2ccccc2)cc1N(Cc1ccccc1Cl)C(=O)C1CC1 [Compound 423, 3-[(2-CHLORO-BENZYL)- CYCLOPROPANECARBONYL-AMINO]-5- PHENYL-THIOPHENE-2-CARBOXYLIC ACID], O=C(O)c1sc(-c2ccccc2)cc1N(Cc1ccccc1Cl)C(=O)C1CCC1 [Compound 425, 3-[(2-CHLORO-BENZYL)- CYCLOBUTANECARBONYL-AMINO]-5- PHENYL-THIOPHENE-2-CARBOXYLIC ACID] is lower in IC50: greater than 20 µM for the first, 5 to 20 µM for the second. The second is the more potent here.

Compared with CC(C)N(C(=O)C12CC3CC(CC(C3)C1)C2)c1cc(-c2ccccc2)sc1C(=O)O [Compound 424, 3-[(ADAMANTANE-1-CARBONYL)- ISOPROPYL-AMINO]-5-PHENYL- THIOPHENE-2-CARBOXYLIC ACID], Cc1ccc(C(=O)N(c2cc(-c3ccccc3)sc2C(=O)O)C(C)C)c(C#N)c1 [Compound 431, 3-[(2-CYANO-4-METHYL-BENZOYL)- ISOPROPYL-AMINO]-5-PHENYL- THIOPHENE-2-CARBOXYLIC ACID] is lower in IC50: greater than 20 µM for the first, 5 to 20 µM for the second. The second is the more potent here.

First: CC(=O)N(Cc1ccccc1C)c1cc(-c2ccccc2)sc1C(=O)O [Compound 426, 3-[ACETYL-(2-METHYL-BENZYL)-AMINO]- 5-PHENYL-THIOPHENE-2-CARBOXYLIC ACID]
Second: CCC(=O)N(Cc1ccccc1C)c1cc(-c2ccccc2)sc1C(=O)O [Compound 427, 3-[(2-METHYL-BENZYL)-PROPIONYL- AMINO]-5-PHENYL-THIOPHENE-2- CARBOXYLIC ACID]
The IC50 of the first is higher: greater than 20 µM for the first, 5 to 20 µM for the second. The second is the more potent here.

First: Cc1ccc(C(=O)N(c2cc(-c3cccc(C(F)(F)F)c3)sc2C(=O)O)C(C)C)c(O)c1 [Compound 428, 3-[(2-HYDROXY-4-METHYL-BENZOYL)- ISOPROPYL-AMINO]-5-(3- TRIFLUOROMETHYL-PHENYL)- THIOPHENE-2-CARBOXYLIC ACID]
Second: CC(C)N(C(=O)c1ccc(Cl)cc1Cl)c1cc(-c2ccc(-c3nnn[nH]3)cc2)sc1C(=O)O [Compound 430, 3-[(2,4-DICHLORO-BENZOYL)- ISOPROPYL-AMINO]-5-[4-(1#H!- TETRAZOL-5-YL)-PHENYL]-THIOPHENE- 2-CARBOXYLIC ACID]
The IC50 of the first is higher: 5 to 20 µM for the first, less than 5 µM for the second. The second is the more potent here.

First: CC(=O)N1CCC(N(C(=O)c2ccc(Cl)cc2Cl)c2cc(-c3ccccc3)sc2C(=O)O)CC1 [Compound 429, 3-[(1-ACETYL-PIPERIDIN-4-YL)-(2,4- DICHLORO-BENZOYL)-AMINO]-5- PHENYL-THIOPHENE-2-CARBOXYLIC ACID]
Second: Cc1ccccc1CN(C(=O)C1CCC1)c1cc(-c2ccccc2)sc1C(=O)O [Compound 432, 3-[CYCLOBUTANECARBONYL-(2- METHYL-BENZYL)-AMINO]-5-PHENYL- THIOPHENE-2-CARBOXYLIC ACID]
The IC50 of the first is lower: less than 5 µM for the first, 5 to 20 µM for the second. The first is the more potent here.

CCCC(=O)N(Cc1ccccc1C)c1cc(-c2ccccc2)sc1C(=O)O [Compound 433, 3-[BUTYRYL-(2-METHYL-BENZYL)- AMINO]-5-PHENYL-THIOPHENE-2- CARBOXYLIC ACID] and CC(=O)N(Cc1cccc(C)c1)c1cc(-c2ccccc2)sc1C(=O)O [Compound 434, 3-[ACETYL-(3-METHYL-BENZYL)-AMINO]- 5-PHENYL-THIOPHENE-2-CARBOXYLIC ACID] fall in the same range of IC50: 5 to 20 µM for the first, 5 to 20 µM for the second.
